ChEMBL document CHEMBL4842370, “Discovery of 1-(phenylsulfonyl)-1H-indole-based multifunctional ligands targeting cholinesterases and 5-HT6 receptor with anti-aggregation properties against amyloid-beta and tau” (Eur J Med Chem, 2021)
Calls of active or inactive are those of the source. The rule behind the calls is not given here.

Experiments:
[1] = biological target: T1, Amyloid-beta precursor protein (Homo sapiens, UniProt P05067); test: Inhibition of HFIP-pretreated human recombinant amyloid beta (1 to 42) self aggregation at 10 uM incubated up to 48 hrs under shaking condition and measured every 3 min by Thioflavin T based fluorescence assay relative to control
T1 sequence (P05067 whole entry): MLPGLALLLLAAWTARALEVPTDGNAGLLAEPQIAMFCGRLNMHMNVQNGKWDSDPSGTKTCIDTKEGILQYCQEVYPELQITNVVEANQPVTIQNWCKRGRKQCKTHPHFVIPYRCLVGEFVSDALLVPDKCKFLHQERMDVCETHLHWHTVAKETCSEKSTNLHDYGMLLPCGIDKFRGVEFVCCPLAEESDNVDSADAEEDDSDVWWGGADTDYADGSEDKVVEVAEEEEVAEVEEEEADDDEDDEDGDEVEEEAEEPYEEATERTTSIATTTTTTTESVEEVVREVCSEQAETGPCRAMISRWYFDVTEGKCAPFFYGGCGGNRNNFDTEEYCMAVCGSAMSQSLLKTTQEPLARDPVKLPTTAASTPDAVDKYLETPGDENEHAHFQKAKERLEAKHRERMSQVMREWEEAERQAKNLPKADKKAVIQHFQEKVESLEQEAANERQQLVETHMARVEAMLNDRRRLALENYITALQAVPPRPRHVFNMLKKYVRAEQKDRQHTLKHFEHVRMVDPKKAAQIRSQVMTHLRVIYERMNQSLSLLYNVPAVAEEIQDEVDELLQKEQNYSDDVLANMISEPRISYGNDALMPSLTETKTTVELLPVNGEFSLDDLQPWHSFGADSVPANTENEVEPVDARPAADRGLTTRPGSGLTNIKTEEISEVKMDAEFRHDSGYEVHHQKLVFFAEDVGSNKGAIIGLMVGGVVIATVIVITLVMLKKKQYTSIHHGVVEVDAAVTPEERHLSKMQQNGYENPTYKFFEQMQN

[2] = biological target: T1, Amyloid-beta precursor protein; test: Inhibition of amyloid beta (1 to 42) (unknown origin) aggregation expressed in Escherichia coli BL21 (DE3) at 10 uM incubated for 24 hrs by microplate reader assay relative to control
Homo sapiens = species: Homo sapiens; test: Inhibition of tau protein (unknown origin) expressed in Escherichia coli BL21 (DE3) at 10 uM incubated for 24 hrs by microplate reader assay relative to control
[3] = biological target: T2, 5-hydroxytryptamine receptor 6 (Homo sapiens, UniProt P50406); test: Displacement of [3H]-LSD from human 5HT6R expressed in CHO-K1 cell membranes incubated for 1 hr by scintillation counter method; design: species or system Membrane
T2 sequence (P50406 whole entry): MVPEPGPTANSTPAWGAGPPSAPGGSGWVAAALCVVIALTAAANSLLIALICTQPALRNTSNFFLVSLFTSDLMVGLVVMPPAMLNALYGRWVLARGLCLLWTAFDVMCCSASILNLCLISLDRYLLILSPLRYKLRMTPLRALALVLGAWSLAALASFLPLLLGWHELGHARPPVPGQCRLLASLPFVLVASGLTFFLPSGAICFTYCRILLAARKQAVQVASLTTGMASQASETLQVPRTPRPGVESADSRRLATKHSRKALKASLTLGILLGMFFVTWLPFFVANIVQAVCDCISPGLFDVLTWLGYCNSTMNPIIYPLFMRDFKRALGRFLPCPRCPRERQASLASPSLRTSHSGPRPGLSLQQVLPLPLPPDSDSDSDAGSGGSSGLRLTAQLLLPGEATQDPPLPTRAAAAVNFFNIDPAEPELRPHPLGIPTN

Acetylcholinesterase = Acetylcholinesterase (Electrophorus electricus, UniProt O42275); test: Inhibition of electric eel AChE using acetylthiocholine iodide as substrate incubated for 5 mins followed by substrate addition and measured after 5 mins by spectrophotometric based Ellman's method
Sequence of Acetylcholinesterase (O42275 whole entry): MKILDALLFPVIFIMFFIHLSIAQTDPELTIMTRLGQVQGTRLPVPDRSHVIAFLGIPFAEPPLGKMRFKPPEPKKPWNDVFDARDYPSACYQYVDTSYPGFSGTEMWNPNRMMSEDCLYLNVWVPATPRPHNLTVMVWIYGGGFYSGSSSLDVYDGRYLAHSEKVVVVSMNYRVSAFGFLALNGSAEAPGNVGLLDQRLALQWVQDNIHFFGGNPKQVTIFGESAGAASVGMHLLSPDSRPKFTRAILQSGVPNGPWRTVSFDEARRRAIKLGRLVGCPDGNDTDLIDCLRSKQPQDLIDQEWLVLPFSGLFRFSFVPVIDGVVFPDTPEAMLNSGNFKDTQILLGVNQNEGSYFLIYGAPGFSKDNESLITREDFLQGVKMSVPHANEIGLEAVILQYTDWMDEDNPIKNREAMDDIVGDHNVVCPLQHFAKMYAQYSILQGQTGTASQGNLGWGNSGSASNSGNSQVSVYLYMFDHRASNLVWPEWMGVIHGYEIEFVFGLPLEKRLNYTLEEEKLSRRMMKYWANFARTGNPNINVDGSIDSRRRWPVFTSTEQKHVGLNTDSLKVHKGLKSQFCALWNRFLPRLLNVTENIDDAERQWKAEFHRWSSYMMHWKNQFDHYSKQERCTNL

Cholinesterase = Cholinesterase (Equus caballus, UniProt P81908)
Sequence of Cholinesterase (P81908 whole entry): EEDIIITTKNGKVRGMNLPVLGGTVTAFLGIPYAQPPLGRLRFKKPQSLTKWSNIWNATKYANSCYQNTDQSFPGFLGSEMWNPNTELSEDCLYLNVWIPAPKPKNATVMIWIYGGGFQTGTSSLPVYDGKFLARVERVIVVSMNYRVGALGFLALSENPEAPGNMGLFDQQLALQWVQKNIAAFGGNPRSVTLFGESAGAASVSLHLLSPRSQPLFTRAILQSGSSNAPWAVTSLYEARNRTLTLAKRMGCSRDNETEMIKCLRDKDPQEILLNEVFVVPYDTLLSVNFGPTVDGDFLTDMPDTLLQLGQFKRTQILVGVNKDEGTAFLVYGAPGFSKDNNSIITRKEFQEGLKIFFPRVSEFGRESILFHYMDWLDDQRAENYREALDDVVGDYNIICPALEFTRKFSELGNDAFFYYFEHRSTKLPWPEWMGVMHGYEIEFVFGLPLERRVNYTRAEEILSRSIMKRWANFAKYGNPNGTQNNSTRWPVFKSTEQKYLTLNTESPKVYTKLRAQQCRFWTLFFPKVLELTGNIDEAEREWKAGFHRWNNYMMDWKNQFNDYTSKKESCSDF
Description: Inhibition of equine serum BuChE using butyrylthiocholine as substrate incubated for 5 mins followed by substrate addition and measured after 5 mins by spectrophotometric based Ellman's method

Cytochrome P450 3A4 = Cytochrome P450 3A4 (Homo sapiens, UniProt P08684); test: Inhibition of CYP3A4 (unknown origin) at <=10 uM; type: ADME
Sequence of Cytochrome P450 3A4 (P08684 whole entry): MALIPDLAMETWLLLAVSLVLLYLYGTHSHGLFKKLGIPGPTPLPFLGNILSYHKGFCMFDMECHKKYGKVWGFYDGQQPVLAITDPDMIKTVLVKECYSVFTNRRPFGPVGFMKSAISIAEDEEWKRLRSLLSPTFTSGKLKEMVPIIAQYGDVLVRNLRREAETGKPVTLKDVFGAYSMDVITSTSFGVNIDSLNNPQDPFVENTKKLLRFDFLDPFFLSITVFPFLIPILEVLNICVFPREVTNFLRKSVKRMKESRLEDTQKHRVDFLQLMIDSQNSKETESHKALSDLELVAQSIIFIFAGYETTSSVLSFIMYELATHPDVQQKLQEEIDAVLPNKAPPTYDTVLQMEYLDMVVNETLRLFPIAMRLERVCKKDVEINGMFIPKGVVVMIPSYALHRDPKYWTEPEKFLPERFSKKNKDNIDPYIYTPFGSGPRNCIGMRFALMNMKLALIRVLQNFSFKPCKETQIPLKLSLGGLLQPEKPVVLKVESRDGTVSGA

HepG2 = test: Cytotoxicity against human HepG2 cells assessed as cell reduction in cell viability incubated for 48 hrs by MTS assay; type: cell-based; details: HepG2, 48 h
[4] = biological target: T1, Amyloid-beta precursor protein; test: Inhibition of HFIP-pretreated human recombinant amyloid beta (1 to 42) self aggregation incubated up to 48 hrs under shaking condition and measured every 3 min by Thioflavin T based fluorescence assay
Cytochrome P450 2D6 = Cytochrome P450 2D6 (Homo sapiens, UniProt P10635); test: Inhibition of CYP2D6 (unknown origin) at <=10 uM; type: ADME
Sequence of Cytochrome P450 2D6 (P10635 whole entry): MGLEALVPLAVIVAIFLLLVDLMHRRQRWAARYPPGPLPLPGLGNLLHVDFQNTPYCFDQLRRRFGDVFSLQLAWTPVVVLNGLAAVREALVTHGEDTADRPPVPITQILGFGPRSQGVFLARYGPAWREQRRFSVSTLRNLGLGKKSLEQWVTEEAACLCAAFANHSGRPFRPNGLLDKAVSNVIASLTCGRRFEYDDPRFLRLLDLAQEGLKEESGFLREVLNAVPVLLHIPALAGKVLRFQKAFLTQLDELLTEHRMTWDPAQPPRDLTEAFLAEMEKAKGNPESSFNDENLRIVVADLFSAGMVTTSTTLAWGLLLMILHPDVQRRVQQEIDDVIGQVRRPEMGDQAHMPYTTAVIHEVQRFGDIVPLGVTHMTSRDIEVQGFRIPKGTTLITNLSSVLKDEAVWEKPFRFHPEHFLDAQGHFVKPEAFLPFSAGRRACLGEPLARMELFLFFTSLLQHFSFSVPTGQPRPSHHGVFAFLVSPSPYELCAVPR

in vitro [5] = details: mouse, liver microsomes
[6] = biological target: T2, 5-hydroxytryptamine receptor 6; test: Antagonist activity at human 5HT6R expressed in 1321N1 cells assessed as inhibition of […] cAMP production measured after 30 mins by TR-FRET assay; type: functional, cell-based; details: filed as antagonist
in vitro [7] = details: PAMPA
Description: Permeability coefficient of the compound in PBS buffer incubated for 5 hrs by PAMPA-based LC-MS analysis

SMILES	inhibition [1]	inhibition [2] [%]	inhibition (Homo sapiens) [%]	Ki [3] [nM]	IC50 (Acetylcholinesterase; read-out: IC50) [µM]	IC50 (Cholinesterase) [nM]	IC50 (Acetylcholinesterase)	inhibition (INH) (Cytochrome P450 3A4)	IC50 (HepG2) [µM]	IC50 [4] [nM]	inhibition (INH) (Cytochrome P450 2D6)	metabolised at 2 h (in vitro [5]) [%]	Kb [6] [nM]	Papp at 5 h (in vitro [7]) [×10⁻⁶ cm/s]
CCN(C)C(=O)Oc1cccc([C@H](C)N(C)C)c1	86.6%													
O=S(=O)(c1ccccc1)n1ccc2c(OCCNCCNCc3ccc(F)cc3)cccc21	73.4%	23.7	58	0.1	6210	1300								
O=S(=O)(c1ccccc1)n1ccc2c(OCCNCCNCc3cc(Cl)cc(Cl)c3)cccc21	57.2%	40.9	62.3	11		1660	Not Active							
O=S(=O)(c1ccccc1)n1ccc2c(OCCNCCCNCc3ccccc3)cccc21	53.2%			8		701	Not Active							
O=S(=O)(c1ccccc1)n1ccc2c(OCCNCCCCNCc3ccccc3)cccc21	41.8%			8		887	Not Active							
O=S(=O)(c1ccccc1)n1ccc2c(OCCNCCCCCCNc3c4c(nc5ccccc35)CCCC4)cccc21	69.2%			8.6	0.0725	4.07								
O=S(=O)(c1ccccc1)n1ccc2c(OCCNCCCCCNc3c4c(nc5ccccc35)CCCC4)cccc21	73.2%			7	0.303	2.17								
COc1ccc(CNCCNCCOc2cccc3c2ccn3S(=O)(=O)c2ccccc2)cc1	63.8%	41.4	64	3.5		2070	Not Active							
O=S(=O)(c1ccccc1)n1ccc2c(OCCNCCNc3c4c(nc5ccccc35)CCCC4)cccc21	74.8%			13	0.00842	24.4		Not Active	79.6	1100	Not Active	72		
O=S(=O)(c1ccccc1)n1ccc2c(OCCNCCNCc3cccc(Cl)c3)cccc21	64.3%	25.7	57.5	2	4.84	1080								
Cc1cccc(CNCCNCCOc2cccc3c2ccn3S(=O)(=O)c2ccccc2)c1	57.4%	48.5	58.8	2	4470	1070								
O=S(=O)(c1ccccc1)n1ccc2c(OCCNCCCCCNCc3ccccc3)cccc21	62.5%	36.5	51.7	12		394	Not Active							
O=S(=O)(c1ccccc1)n1ccc2c(OCCNCCCCNc3c4c(nc5ccccc35)CCCC4)cccc21	77.4%			3.5	0.0575	9.39							10	
O=S(=O)(c1ccccc1)n1ccc2c(OCCNCCNCc3ccc(Cl)cc3)cccc21	60.6%	31.9	58.2	1		1990	Not Active							
O=S(=O)(c1ccccc1)n1ccc2c(OCCNCCNCc3ccccc3)cccc21	55%	26.9	58.1	3	2.87	528							9	
O=S(=O)(c1ccccc1)n1ccc2c(OCCNCCNCc3cccc(C(F)(F)F)c3)cccc21	inactive	37.1	79.4	1.7		2120	Not Active						7	
O=S(=O)(c1ccccc1)n1ccc2c(OCCNCCCNc3c4c(nc5ccccc35)CCCC4)cccc21	61.1%			10	0.0209	18.8								
CCN(C)C(=O)Oc1cccc(CNCCNCCOc2cccc3c2ccn3S(=O)(=O)c2ccccc2)c1	68.1%	77.5	68.7	15		454	Not Active	Not Active	21.1	1380	Not Active	40	48	1.27
O=S(=O)(c1ccccc1)n1ccc2c(OCCNCCNCc3ccccc3Cl)cccc21	57%	27.5	53.5	3	4.24	586							58	
O=[N+]([O-])c1ccc(CNCCNCCOc2cccc3c2ccn3S(=O)(=O)c2ccccc2)cc1	57.7%	31.6	62.3	2		4260	Not Active							
